Like-named read-outs stand apart in the source and are kept apart here.

Assay [1] relates to RL Human Follicular Lymphoma Cell Line. Description: Alamar blue cytotoxicity assay in RL cells. The format is cell-based. Particulars: Homo sapiens, 72 h incubation, read-out: Bcl RL Alamar Blue IC50. Put shortly: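 Compounds tested at 29 uM to 0.013 uM final (0.3% DMSO) on 30,000 RL cells per well. After 72 h at 37 C, 5% CO2, viability read with Alamar blue.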
For another assay, the target named is Bcl-xL (Homo sapiens, UniProt Q07817). The experiment in a line: Bcl-xL binding affinity analysis (fluorescence polarization binding assay). More on the design: scale not given here. Put shortly: (§1)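 Sensitive, quantitative cell-free test: compound incubated with protein, then polarization of emitted fluorescence recorded to gauge affinity.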
The target of another assay is Bcl-2 (Homo sapiens, UniProt P10415). The experiment in a line: Bcl-2 binding affinity analysis (fluorescence polarization binding assay). Put shortly:
as §1

Assay [2] relates to Human Pancreatic Cancer Cell Line Panc1. The experiment in a line: Cell death assay (propidium iodide/Hoechst) in Panc1 cells with or without camptothecin. The format is cell-based. Particulars: 72 hours, % cell death by propidium iodide/Hoechst. The essentials: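 Panc1 cells, 10,000/well, exposed 72 h at 37 C to compound (29 uM to 0.13 uM, 0.3% DMSO) with or without 3 uM camptothecin. Propidium iodide and Hoechst staining imaged by fluorescence microscopy; % cell death = PI-stained/Hoechst-stained cells × 100.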

Setting [3] is: Homo sapiens, PANC-1, without camptothecin, read-out: Panc1 − Cpt IC50.
[4] abbreviates: with 3 uM Camptothecin, read-out: Panc1 + Cpt IC50.

Chain of Bcl-2 (P10415 whole entry): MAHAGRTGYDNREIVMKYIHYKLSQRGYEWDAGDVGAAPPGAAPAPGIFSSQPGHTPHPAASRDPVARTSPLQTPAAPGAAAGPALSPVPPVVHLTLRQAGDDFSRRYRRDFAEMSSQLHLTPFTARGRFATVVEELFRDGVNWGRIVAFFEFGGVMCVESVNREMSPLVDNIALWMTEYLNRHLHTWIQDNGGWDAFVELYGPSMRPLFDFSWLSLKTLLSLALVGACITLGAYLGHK
Chain of Bcl-xL (Q07817 whole entry): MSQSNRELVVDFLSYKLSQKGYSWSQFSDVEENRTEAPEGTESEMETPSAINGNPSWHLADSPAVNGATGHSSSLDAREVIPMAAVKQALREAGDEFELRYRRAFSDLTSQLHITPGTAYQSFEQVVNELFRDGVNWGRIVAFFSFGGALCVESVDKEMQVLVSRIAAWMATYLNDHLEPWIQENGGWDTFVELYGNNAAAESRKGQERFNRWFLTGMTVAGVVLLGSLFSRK

For `CC(O)C1C(CO)ON(Cc2cccc(CN3Cc4ccccc4C3CN(C)C)c2)C1C(=O)NC1CC2CC(C1C)C2(C)C` (stereo not shown) [Compound 470], the results for the IC50 in assay [1], in assay [2] (setting [3]) and in assay [2] (setting [4]) were > 5 µM, > 2.5 µM and > 2.5 µM, respectively. The “Bcl-XL binding affinity Ki” value on Bcl-xL is “♯”. The Ki at Bcl-2 is < 0.8 µM.

`CC(C)C(CN(C)C)N(Cc1ccccc1)Cc1cccc(CN2OC(CO)C(C(C)O)C2C(=O)NC2CC3CC(C2C)C3(C)C)c1` (stereo not shown) [Compound 415]: the IC50 was 2 to 5 µM in assay [1], > 2.5 µM in assay [2] (setting [3]) and > 2.5 µM in assay [2] (setting [4]). The “Bcl-XL binding affinity Ki” value at Bcl-xL was “♯”. Further, the Ki on Bcl-2 was < 0.8 µM.

Take `CC(O)C1C(CO)ON(Cc2cccc(CN(CCN(C)C)CC3=CCCCC3)c2)C1C(=O)NC1CC2CC(C1C)C2(C)C` (stereo not shown) [Compound 354]: the results for the IC50 in assay [1], in assay [2] (setting [3]) and in assay [2] (setting [4]) were < 2 µM, 1.8 to 2.5 µM and 1.3 to 1.8 µM, respectively. On Bcl-xL, the “Bcl-XL binding affinity Ki” value is reported as “♯”. The Ki on Bcl-2 was < 0.8 µM.

`CC(O)C1C(CO)ON(Cc2cccc(CN(CCN(C)C)Cc3cccc(Br)c3)c2)C1C(=O)NC1CC2CC(C1C)C2(C)C` (stereo not shown) [Compound 366]: the IC50 was in the range of 2 to 5 µM in assay [1], 1.8 to 2.5 µM in assay [2] (setting [3]) and 1.8 to 2.5 µM in assay [2] (setting [4]). Besides, on Bcl-xL, the “Bcl-XL binding affinity Ki” value was “♯”. For the same compound, the Ki on Bcl-2 was < 0.8 µM.

Take `CC(O)C1C(CO)ON(Cc2cccc(CN(Cc3ccccc3)C(CN(C)C)CC(C)(C)C)c2)C1C(=O)NC1CC2CC(C1C)C2(C)C` (stereo not shown) [Compound 414]: the IC50 was 2 to 5 µM in assay [1], > 2.5 µM in assay [2] (setting [3]) and 1.8 to 2.5 µM in assay [2] (setting [4]). For the same compound, the “Bcl-XL binding affinity Ki” value on Bcl-xL is “♯”. At Bcl-2, the Ki was < 0.8 µM.

Regarding `CC(O)C1C(CO)ON(Cc2cccc(CN(CCN(C)C)Cc3ccoc3)c2)C1C(=O)NC1CC2CC(C1C)C2(C)C` (stereo not shown) [Compound 392], the IC50 in assay [1] was > 5 µM; in assay [2] (setting [3]), > 2.5 µM; in assay [2] (setting [4]) it was > 2.5 µM. Also, on Bcl-xL, the “Bcl-XL binding affinity Ki” value was “♯”. Further, the Ki at Bcl-2 is < 0.8 µM.

For the compound `CCN(CC)CCN(Cc1ccccc1)Cc1cccc(CN2OC(CO)C(C(C)O)C2C(=O)NC2CC3CC(C2C)C3(C)C)c1` (stereo not shown) [Compound 428], the IC50 in assay [1] is > 5 µM; in assay [2] (setting [3]) it was > 2.5 µM; in assay [2] (setting [4]), > 2.5 µM. Besides, the “Bcl-XL binding affinity Ki” value on Bcl-xL is on record as “♯”. In addition, the Ki at Bcl-2 was < 0.8 µM.

Turning to `CC(O)C1C(CO)ON(Cc2cccc(CN(Cc3ccccc3)C(C)CN(C)C)c2)C1C(=O)NC1CC2CC(C1C)C2(C)C` (stereo not shown) [Compound 431], the values for the IC50 in assay [1], in assay [2] (setting [3]) and in assay [2] (setting [4]) were > 5 µM, > 2.5 µM and > 2.5 µM, respectively. On Bcl-xL, the “Bcl-XL binding affinity Ki” value is recorded as “♯”. Also, the inhibition constant Ki at Bcl-2 was < 0.8 µM.

On to `CC(O)C1C(CO)ON(Cc2cccc(CN(CCN(C)C)Cc3cccnc3)c2)C1C(=O)NC1CC2CC(C1C)C2(C)C` (stereo not shown) [Compound 393], for which the IC50 is > 5 µM in assay [1], > 2.5 µM in assay [2] (setting [3]) and > 2.5 µM in assay [2] (setting [4]). In addition, on Bcl-xL, the “Bcl-XL binding affinity Ki” value is “♯”. In addition, at Bcl-2, the Ki is < 0.8 µM.

On to `COc1c(CN2O[C@@H](CO)[C@@H]([C@H](C)O)[C@H]2C(=O)N[C@H]2C[C@H]3C[C@@H]([C@@H]2C)C3(C)C)cccc1-c1cccc(C(=O)N[C@H](Cc2ccccc2)CN(C)C)c1` [Compound 486], for which the concentration for half-maximal inhibition (IC50) in assay [1] was 2 to 5 µM; in assay [2] (setting [3]), > 2.5 µM; in assay [2] (setting [4]), > 2.5 µM. In addition, on Bcl-xL, the “Bcl-XL binding affinity Ki” value is “♯”. Besides, the Ki on Bcl-2 was < 0.8 µM.

Turning to `COc1c(CN2O[C@@H](CO)[C@@H]([C@H](C)O)[C@H]2C(=O)N[C@H]2C[C@H]3C[C@@H]([C@@H]2C)C3(C)C)cccc1-c1cccc(C(=O)N[C@@H](CC2CCCCC2)CN(C)C)c1` [Compound 487], the values for the IC50 in assay [1], in assay [2] (setting [3]) and in assay [2] (setting [4]) were 2 to 5 µM, > 2.5 µM and > 2.5 µM, respectively. Also, the “Bcl-XL binding affinity Ki” value on Bcl-xL is on record as “♯”. The Ki at Bcl-2 is < 0.8 µM.

The values above are taken from patent US7851637B2, “Compounds and methods for inhibiting the interaction of BCL proteins with binding partners” (Infinity Pharmaceuticals, Inc., priority 2004, dated 2010).
